Patent US9863956B2, “Differentiation of isobaric amino acids and other species” (Agency for Science, Technology and Research, priority 2009, dated 2018)
Where no end group is shown, it is not given here.

Experiments:
[1] = biological target: bovine carbonic anhydrase (bCAII) (Bos taurus, UniProt P00921); assay: OBOC hexamer peptide library screening with Alexa Fluor 647 labeled bCAII, COPAS Plus bead sorting; format: binding; settings: 50 nM dye labeled bCAII, 15 hr at 25° C.; on-bead peptide
Method: Alexa Fluor® 647 protein labeling kit (A20173, Invitrogen) was chosen as the reactive dye for labeling bovine carbonic anhydrase (bCAII) following the supplier's protocol. Briefly, 2 mg/mL of bCAII in 0.1 M sodium bicarbonate (pH ˜8.3) was transferred 0.5 mL of bCAII solution into the vial of the reactive dye, and the vial was capped and inverted several times to dissolve the dye completely. The reaction mixture was stirred for 1 hr at room temperature under dark conditions. The Alexa Fluro® 647 labeled bCAII (bCAII-A647) was purified from the mixture using the size exclusion purification resin in the kit. Purified and labeled bCAII-A647 was characterized by NanoDrop (Thermo Scientific) and gel documentation (Typhoon) after SDS-PAGE. […]
Hit beads were sorted into cone-shaped wells of a 96 well plate using a COPAS Plus. […] The gating region was defined for beads based on their time-of-flight (TOF) and red fluorescence, and the sorting region was chosen for selecting beads based on their time-of-flight (TOF) and uniformity red fluorescence after incubation with bCAII-A647. […] The TOF, red fluorescence, and red fluorescence peak height of the beads were detected using a red diode laser (λ=635 nm). Due to the auto-fluorescence of the beads, the argon ion laser was intentionally turned off to minimize bleed-through effect. […]

bCAII = bCAII (Bos taurus, UniProt P00921); assay: SPR affinity measurement (Biacore 3000) of peptide on immobilized bCAII; format: binding, bovine
Method: Affinity measurements were performed using a Biacore 3000 system (GE Heathcare) equipped with research grade CM5 sensor chips (GE Healthcare). The CM5 sensor chip was preconditioned after docking and priming the instrument with HBS-EP (GE Heathcare) buffer. Flow cell 1 (or 3) was used as a reference to subtract nonspecific binding, drift, and bulk refractive index. Using a flow rate of 20 microliters/min, the sensor chip's four flow cells were activated at 25° C. with a 7 min injection of amine-coupling kit (GE Healthcare) (1:1 mixture of 0.4 M EDC and 0.1 M NHS). To create a bCAII surface, 1 mg of bCAII was dissolved in 1 mL of 10 mM sodium acetate (pH 5.0) and injected across flow cell 2 only. Approximately 1000 response units (RU) of bCAII were immobilized onto this surface. Finally, 1.0 M ethanolamine (pH 8.5) was injected across the four flow cells for 4 min to deactivate the surfaces. After bCAII immobilization, the instrument was primed three times using running buffer (1×PBS+3% DMSO). HIRYKR (SEQ ID NO: 2) peptide (26.13 micrograms) was dissolved in 18 microliters DMSO and diluted with HBS-EP buffer to produce a 50 micromolar peptide stock solution. The peptide stock solution was serially diluted by a factor of 2 to a concentration of 390 nM. […]

Sequence of bCAII (P00921 whole entry): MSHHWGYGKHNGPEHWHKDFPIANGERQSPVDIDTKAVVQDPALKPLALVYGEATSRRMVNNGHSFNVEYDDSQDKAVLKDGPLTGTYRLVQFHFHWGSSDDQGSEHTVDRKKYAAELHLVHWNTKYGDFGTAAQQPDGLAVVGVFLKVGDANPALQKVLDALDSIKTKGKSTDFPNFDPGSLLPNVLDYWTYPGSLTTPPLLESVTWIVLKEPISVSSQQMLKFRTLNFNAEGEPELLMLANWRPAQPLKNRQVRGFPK
Sequence of bovine carbonic anhydrase (bCAII) (P00921 whole entry): as above

With “HIRYKR [hit hexamer peptide from OBOC library screened against bCAII, re-synthesized from Fmoc D-amino acids with a carboxamide C-terminus]” the “hit in library screening against bCAII (bead fluorescence)” value [1] was “hit peptide from the brightest bead”, the “dissociation constant (KD)” value (bCAII; 1:1 Langmuir binding fit, 25° C., peptide 50 micromolar to 390 nM) was “micromolar range” and the “binding affinity to the protein bCAII” value (bCAII; conclusion in words) was “significant binding affinity”.

“IQHKRF (not fully specified (residues 1, 2, 3, 4, 5, 6, C-terminus); also: D-amino acids, which residues not given here)” was tested, and the “hit in library screening against bCAII (bead fluorescence)” value [1] was “hit peptide”.
